{"source": "paper doi:10.1101/2020.07.12.199869v2", "about": "(bioRxiv, 2020)", "tested_on": "PGP/syndapin-2", "assay": "Proximity ligation assay PGP/syndapin-2 in BECs", "format": "cell-based, mouse", "conditions": "polarised BECs, FAM-Aβ (1-40) 500 nM, 15 minutes; n = 60 images", "data": [{"substance": "5-Fluorescein-amyloid-β protein (Aβ 1-40) [FAM-Aβ (1-40)]", "values": [{"measurement": "change in interaction of syndapin-2 with PGP (PLA dots)", "result": "no significant difference"}]}]}
